In patent US4404217A, “3-Indolyl alkylene amino propanols and cardiovascular compositions thereof” (C. M. Industries, priority 1979, dated 1983):

Biological target: T1, α2 receptor (Rattus norvegicus, UniProt P22909)
T1 construct: plasmic membranes of rat brains; from tissue; host or cells: rat brain plasma membranes
T1 sequence (P22909 1-465): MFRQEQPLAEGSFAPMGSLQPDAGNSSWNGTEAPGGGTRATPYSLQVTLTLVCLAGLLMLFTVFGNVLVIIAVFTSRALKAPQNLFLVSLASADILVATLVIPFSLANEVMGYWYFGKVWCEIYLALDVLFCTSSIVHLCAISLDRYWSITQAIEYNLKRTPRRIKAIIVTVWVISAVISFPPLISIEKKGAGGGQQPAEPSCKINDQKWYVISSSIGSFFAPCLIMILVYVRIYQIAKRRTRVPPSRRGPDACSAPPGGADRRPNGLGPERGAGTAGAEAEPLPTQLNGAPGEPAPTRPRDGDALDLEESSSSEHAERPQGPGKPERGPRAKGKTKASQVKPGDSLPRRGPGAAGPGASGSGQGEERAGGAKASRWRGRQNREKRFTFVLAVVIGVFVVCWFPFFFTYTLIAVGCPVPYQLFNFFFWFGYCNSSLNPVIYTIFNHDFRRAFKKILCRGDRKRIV
Test: Displacement of 3H clonidine, plasmic membranes of rat brains
Type: binding
Conditions: in vitro
Experimental: (§1) The binding tests are effected on suspensions of plasmic membranes coming from various organs. The suspensions of membranes are placed in incubation with the tritiated ligand and various concentrations of products to be tested. After incubation, each test is filtered on GFB(Whatman) filter, the filters are dried and introduced into counting flasks. The measurement of the radioactivity is assessed by scintillation in a liquid medium.
(§2) The tests were made on plasmic membranes of rat brains, in the presence of ^3 H clonidine 1.2×10^-9 M (α2 receptor) and of ^3 H WB4101 (N-[2-(2.6dimethoxyphenoxy)ethyl]1.4benzodioxane-2-methylamine), 0.2×10^-9 M (α1 receptor).

SMILES	affinity for the receptor with clonidine (α2)
NC(=O)Cc1ccc(OCC(O)CNCCc2c[nH]c3ccccc23)cc1 (stereo not shown) [compound 7748]	no affinity
Cc1cccc(OCC(O)CNC(C)Cc2c[nH]c3ccccc23)c1 (stereo not shown) [compound 7782]	no affinity
CC(Cc1c[nH]c2ccc(F)cc12)NCC(O)COc1ccccc1 (stereo not shown) [compound 40038]	no affinity

Same assay, conditions: rat brain membranes; 3H clonidine 1.2×10^-9 M

SMILES	EC50
NC(=O)Cc1ccc(OCC(O)CNCCc2c[nH]c3ccccc23)cc1 (stereo not shown) [compound 7748]	29.5 nM
Cc1cccc(OCC(O)CNC(C)Cc2c[nH]c3ccccc23)c1 (stereo not shown) [compound 7782]	30 nM
Cc1ccccc1OCC(O)CNC(C)(C)Cc1c[nH]c2ccccc12 (stereo not shown) [compound 7854]	6 nM

Biological target: T2, β1 receptor (Canis lupus familiaris, UniProt P79148)
T2 construct: plasmic membranes of hearts of dogs (β1 receptor); from tissue; host or cells: dog heart plasma membranes
Test: Displacement of 3H dihydroalprenolol, plasmic membranes of hearts of dogs
Type: binding, dog
Conditions: not given
Experimental: as §1
(§3) The tests were made on plasmic membranes of hearts of dogs (β1 receptor) and lungs of rats (β2 receptors), in the presence of ^3 H dihydroalprenolol 4×10^-9 M.

T2 sequence (P79148 whole entry): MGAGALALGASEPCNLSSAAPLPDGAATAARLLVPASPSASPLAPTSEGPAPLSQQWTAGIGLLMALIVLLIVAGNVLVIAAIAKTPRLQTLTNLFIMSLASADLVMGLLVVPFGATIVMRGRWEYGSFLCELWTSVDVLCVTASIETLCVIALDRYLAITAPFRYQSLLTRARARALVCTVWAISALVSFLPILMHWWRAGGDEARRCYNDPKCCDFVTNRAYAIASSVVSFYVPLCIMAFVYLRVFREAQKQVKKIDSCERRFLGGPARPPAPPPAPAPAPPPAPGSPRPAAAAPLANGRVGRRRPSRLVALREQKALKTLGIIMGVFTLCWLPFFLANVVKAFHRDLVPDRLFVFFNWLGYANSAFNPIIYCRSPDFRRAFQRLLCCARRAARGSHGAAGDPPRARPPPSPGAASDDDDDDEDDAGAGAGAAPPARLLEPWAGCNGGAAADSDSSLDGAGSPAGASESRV

SMILES	EC50
Cc1cccc(OCC(O)CNC(C)Cc2c[nH]c3ccccc23)c1 (stereo not shown) [compound 7782]	53 nM
CC(Cc1c[nH]c2ccc(F)cc12)NCC(O)COc1ccccc1 (stereo not shown) [compound 40038]	34 nM

Same assay, conditions: dog heart membranes; 3H dihydroalprenolol 4×10^-9 M

SMILES	EC50
Cc1ccccc1OCC(O)CNC(C)(C)Cc1c[nH]c2ccccc12 (stereo not shown) [compound 7854]	16 nM

Same assay, conditions: in vitro, compared with lung β2 (A5)

SMILES	affinity for β1 receptors (heart) versus β2 receptors (lungs)
NC(=O)Cc1ccc(OCC(O)CNCCc2c[nH]c3ccccc23)cc1 (stereo not shown) [compound 7748]	clearly greater affinity for the β1 receptors (heart) than for the β2 receptors (lungs)

Tested on: α adrenergic receptors
Test: Antagonism of the effects of noradrenaline (pressure response), anaesthetized dog, IV
Type: in vivo
Conditions: 50% inhibition of pressure response to noradrenaline
Experimental: (§4) The dog is anaesthetized using sodium pentobarbital, administered by the IV route at a dose of 30 mg/kg. A cannula placed in the saphenous vein allows the intra-venous injections of the products. The animal is submitted to intubation and is allowed to breathe spontaneously.
(§5) The cardiac frequency and the systemic arterial pressure are studied and the variations of these parameters are observed after intra-venous injection of the product to be tested. Each product is tested with increasing doses.
The antagonism of the products with respect to the vascular effects provoked by the IV administration of noradrenaline on the α adrenergic receptors has been sought. The results presented in Table III are expressed in ID50 : it is the dose (mg/kg) which provokes the inhibition by 50% of the pressure response due to the IV administration of noradrenaline.

SMILES	ID50 NORADRENALINE α
NC(=O)Cc1ccc(OCC(O)CNCCc2c[nH]c3ccccc23)cc1 (stereo not shown) [compound 7748]	1 mg/kg
Cc1cccc(OCC(O)CNC(C)Cc2c[nH]c3ccccc23)c1 (stereo not shown) [compound 7782]	0.3 mg/kg
Cc1ccccc1OCC(O)CNC(C)(C)Cc1c[nH]c2ccccc12 (stereo not shown) [compound 7854]	0.1 mg/kg
CC(Cc1c[nH]c2ccc(F)cc12)NCC(O)COc1ccccc1 (stereo not shown) [compound 40038]	0.1 mg/kg

Tested on: not listed separately
Test: Cardiac frequency and arterial pressure in the anaesthetized dog after intravenous injection
Type: in vivo
Conditions: i.v. route, anaesthetised dog
Experimental: as §4, §5

SMILES	reduction in the peripheral arterial pressure
CC(Cc1c[nH]c2ccc(F)cc12)NCC(O)COc1ccccc1 (stereo not shown) [compound 40038]	reduction in the peripheral arterial pressure

Biological target: T3, β adrenergic receptors (β2) (Canis lupus familiaris, UniProt P54833)
T3 construct: The dog is anaesthetized using sodium pentobarbital; from tissue; host or cells: whole anaesthetized dog (vasculature)
Test: Antagonism of the effects of isoprenaline, hypotension (β2), anaesthetized dog, IV
Type: in vivo
Conditions: IV, 50% inhibition of isoprenaline hypotension, read-out: ID50 ISOPRENALINE β2
Experimental: as §4, §5
The antagonism of the products with respect to the β stimulant cardio-vascular effects of isoprenaline on the β adrenergic receptors has been sought. […] The last column indicates the cardioselectivity (β1 >β2) or a low cardioselectivity β1 ≥β2, or no cardioselectivity β1 <β2 and β1 =β2.

T3 sequence (P54833 whole entry): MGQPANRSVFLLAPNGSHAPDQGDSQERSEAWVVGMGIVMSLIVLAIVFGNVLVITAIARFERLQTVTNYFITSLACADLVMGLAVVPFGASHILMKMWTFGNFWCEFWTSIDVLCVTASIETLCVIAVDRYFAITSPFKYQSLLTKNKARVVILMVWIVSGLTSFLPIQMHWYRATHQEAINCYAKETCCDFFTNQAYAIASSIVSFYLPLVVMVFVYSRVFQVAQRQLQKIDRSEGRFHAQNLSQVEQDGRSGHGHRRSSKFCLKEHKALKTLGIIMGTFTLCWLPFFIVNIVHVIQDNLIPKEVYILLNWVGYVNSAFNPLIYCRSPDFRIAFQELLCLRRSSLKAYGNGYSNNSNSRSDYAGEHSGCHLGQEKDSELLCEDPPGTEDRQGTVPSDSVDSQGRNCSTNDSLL

SMILES	ED50
NC(=O)Cc1ccc(OCC(O)CNCCc2c[nH]c3ccccc23)cc1 (stereo not shown) [compound 7748]	> 3 mg/kg
Cc1cccc(OCC(O)CNC(C)Cc2c[nH]c3ccccc23)c1 (stereo not shown) [compound 7782]	≥ 3 mg/kg
Cc1ccccc1OCC(O)CNC(C)(C)Cc1c[nH]c2ccccc12 (stereo not shown) [compound 7854]	0.02 to 0.1 mg/kg
CC(Cc1c[nH]c2ccc(F)cc12)NCC(O)COc1ccccc1 (stereo not shown) [compound 40038]	> 0.3 mg/kg

Biological target: T4, β2 receptors (Rattus norvegicus, UniProt P10608)
T4 construct: lungs of rats (β2 receptors); from tissue; host or cells: rat lung plasma membranes
Test: Displacement of 3H dihydroalprenolol, plasmic membranes of lungs of rats
Type: binding
Conditions: not given
Experimental: as §1, §3

T4 sequence (P10608 whole entry): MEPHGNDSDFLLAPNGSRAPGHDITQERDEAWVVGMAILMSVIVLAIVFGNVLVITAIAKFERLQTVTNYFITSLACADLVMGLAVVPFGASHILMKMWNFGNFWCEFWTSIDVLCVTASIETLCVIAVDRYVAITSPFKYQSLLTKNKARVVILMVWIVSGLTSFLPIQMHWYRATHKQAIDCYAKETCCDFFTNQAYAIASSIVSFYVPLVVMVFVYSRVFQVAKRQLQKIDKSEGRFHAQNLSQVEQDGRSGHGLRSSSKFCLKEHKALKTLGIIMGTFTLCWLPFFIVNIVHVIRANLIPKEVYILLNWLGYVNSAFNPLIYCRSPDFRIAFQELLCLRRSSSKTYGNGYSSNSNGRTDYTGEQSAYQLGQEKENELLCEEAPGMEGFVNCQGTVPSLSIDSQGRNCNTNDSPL

SMILES	EC50
Cc1cccc(OCC(O)CNC(C)Cc2c[nH]c3ccccc23)c1 (stereo not shown) [compound 7782]	61.5 nM
CC(Cc1c[nH]c2ccc(F)cc12)NCC(O)COc1ccccc1 (stereo not shown) [compound 40038]	29 nM

Same assay, conditions: rat lung membranes; 3H dihydroalprenolol 4×10^-9 M

SMILES	EC50
Cc1ccccc1OCC(O)CNC(C)(C)Cc1c[nH]c2ccccc12 (stereo not shown) [compound 7854]	3.7 nM

Biological target: α1 receptor
Test: Displacement of 3H WB 4101, plasmic membranes of rat brains
Type: binding
Conditions: read-out: EC50 of DISPLACEMENT of 3H WB 4101; rat brain membranes; 3H WB4101 0.2×10^-9 M
Experimental: as §1, §2

SMILES	EC50
NC(=O)Cc1ccc(OCC(O)CNCCc2c[nH]c3ccccc23)cc1 (stereo not shown) [compound 7748]	2.7 nM
Cc1ccccc1OCC(O)CNC(C)(C)Cc1c[nH]c2ccccc12 (stereo not shown) [compound 7854]	320 nM

Biological target: T5, β adrenergic receptors (β1) (Canis lupus familiaris, UniProt P79148)
T5 construct: The dog is anaesthetized using sodium pentobarbital; from tissue; host or cells: whole anaesthetized dog (heart)
Test: Antagonism of the effects of isoprenaline, tachycardia (β1), anaesthetized dog, IV
Type: in vivo
Conditions: dog, IV; 50% inhibition of isoprenaline tachycardia; read-out: ID50 ISOPRENALINE β1

T5 sequence (P79148 whole entry): as the sequence (P79148 whole entry) above

SMILES	ED50
NC(=O)Cc1ccc(OCC(O)CNCCc2c[nH]c3ccccc23)cc1 (stereo not shown) [compound 7748]	1 to 3 mg/kg
Cc1ccccc1OCC(O)CNC(C)(C)Cc1c[nH]c2ccccc12 (stereo not shown) [compound 7854]	0.01 to 0.1 mg/kg

Same assay, conditions: dog, IV; isoprenaline antagonism, β1 versus β2

SMILES	cardioselectivity β1 - β2
NC(=O)Cc1ccc(OCC(O)CNCCc2c[nH]c3ccccc23)cc1 (stereo not shown) [compound 7748]	β1 > β2 (cardioselectivity (β1 >β2))
Cc1cccc(OCC(O)CNC(C)Cc2c[nH]c3ccccc23)c1 (stereo not shown) [compound 7782]	β1 > β2 (cardioselectivity (β1 >β2))
Cc1ccccc1OCC(O)CNC(C)(C)Cc1c[nH]c2ccccc12 (stereo not shown) [compound 7854]	β1 ≥ β2 (low cardioselectivity β1 ≥β2)
CC(Cc1c[nH]c2ccc(F)cc12)NCC(O)COc1ccccc1 (stereo not shown) [compound 40038]	β1 > β2 (cardioselectivity (β1 >β2))

Same assay, conditions: dog, iv, read-out: ID50 ISOPRENALINE β1

SMILES	ED50
Cc1cccc(OCC(O)CNC(C)Cc2c[nH]c3ccccc23)c1 (stereo not shown) [compound 7782]	0.1 to 0.3 mg/kg
CC(Cc1c[nH]c2ccc(F)cc12)NCC(O)COc1ccccc1 (stereo not shown) [compound 40038]	0.1 mg/kg

Same assay, conditions: test with isoprenaline

SMILES	cardioselective in vivo (selectively inhibit the cardiac receptors)
NC(=O)Cc1ccc(OCC(O)CNCCc2c[nH]c3ccccc23)cc1 (stereo not shown) [compound 7748]	cardioselective in vivo
Cc1cccc(OCC(O)CNC(C)Cc2c[nH]c3ccccc23)c1 (stereo not shown) [compound 7782]	cardioselective in vivo
CC(Cc1c[nH]c2ccc(F)cc12)NCC(O)COc1ccccc1 (stereo not shown) [compound 40038]	cardioselective in vivo

Tested on: platelet aggregation
Test: Anti-aggregating activity, BORN technique, plasma rich in platelets, ADP
Type: cell-based, human
Conditions: human platelet-rich plasma
Experimental: The anti-aggregating activity of the CM 7743, 7744, 7824, 7854, 7859 and 7874 has been studied according to the BORN technique on plasma rich in platelets of human origin. ADP has been used as indicator of platelet aggregation. […] The required concentration for inhibiting by 50% the maximum rate of aggregation varies from 45 to 100 μM.

SMILES	inhibition of the platelet response with respect to the ADP
Cc1ccccc1OCC(O)CNC(C)(C)Cc1c[nH]c2ccccc12 (stereo not shown) [compound 7854]	inhibited the platelet response

Same assay, conditions: human platelet-rich plasma, ADP; range over all products tested; read-out: concentration for inhibiting by 50% the maximum rate of aggregation

SMILES	IC50
Cc1ccccc1OCC(O)CNC(C)(C)Cc1c[nH]c2ccccc12 (stereo not shown) [compound 7854]	45000 to 100000 nM
